Reference: US4657897A, “N^6 -substituted adenosines for treating pain” (Warner-Lambert Company, priority 1985, dated 1987)
pIC50: −log10 of the molar value.

What was measured:
adenosine A1 receptor = target: T1, adenosine A1 receptor (Rattus norvegicus, UniProt P25099); experiment: Adenosine Receptor Binding--A1 Receptor Affinity (RBA1), [3H]-CHA binding, rat whole brain membranes; design: species or system rat (male Long Evans); conditions: 1.0 nM [3H]-CHA, 25° C., 1 h
T1 construct: Whole brain minus cerebellum and brainstem from male Long Evans rats; from tissue; host or cells: rat whole brain minus cerebellum and brainstem (male Long Evans), membranes
T1 sequence (P25099 1-326): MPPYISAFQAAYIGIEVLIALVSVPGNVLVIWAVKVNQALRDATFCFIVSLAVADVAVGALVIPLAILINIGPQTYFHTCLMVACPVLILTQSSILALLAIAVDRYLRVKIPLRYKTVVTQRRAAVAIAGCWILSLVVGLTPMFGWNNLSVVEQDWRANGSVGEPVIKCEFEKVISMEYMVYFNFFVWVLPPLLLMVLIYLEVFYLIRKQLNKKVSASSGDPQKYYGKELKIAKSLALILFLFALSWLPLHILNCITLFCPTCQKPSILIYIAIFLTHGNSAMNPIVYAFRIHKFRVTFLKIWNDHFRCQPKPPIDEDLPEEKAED
Protocol: Adenosine Receptor Binding--A1 Receptor Affinity (RBA1)
Whole brain minus cerebellum and brainstem from male Long Evans rats (150-200 g) was homogenized in 30 volumes of ice-cold 0.05M Tris-HCl buffer pH 7.7 using a Brinkman Polytron PT-10, (setting number 6 for 20 seconds) and centrifuged for ten minutes at 20,000×g (Sorvall RC-2), 4° C. The supernatant was discarded, and the pellet was resuspended and centrifuged as before. The pellet was resuspended in 20 ml Tris-HCl buffer containing two International Units/ml of adenosine deaminase (Sigma type III from calf intestinal mucosa), incubated at 37° C. for 30 minutes, then subsequently at 0° C. for ten minutes. The homogenate was again centrifuged, and the final pellet was resuspended in ice-cold 0.05M Tris-HCl buffer pH 7.7 to a concentration of 20 mg/ml original wet tissue weight and used immediately.
Tissue homogenate (10 mg/ml) was incubated in 0.05M Tris-HCl buffer pH 7.7 containing 1.0 nM [^3 H]-N^6 -cyclohexyladenosine[^3 H]-CHA) with or without test agents in triplicate for one hour at 25° C. Incubation volume was 2 ml. Unbound [^3 H]-CHA was separated by rapid filtration under reduced pressure through Whatman glass fiber (GF/B) filters. The filters were rinsed three times with 5 ml of ice cold 0.05M Tris-HCl buffer pH 7.7. The radio-labeled ligand retained on the filter was measured by liquid scintillation spectrophotometry after shaking the filters for one hour or longer on a mechanical shaker in 10 ml of Beckman Ready-Solv HP scintillation cocktail.
Nonspecific binding was defined as the binding which occurred in the presence of 1 mM theophylline. The concentration of test agent which inhibited 50% of the specific binding (IC50) was determined by nonlinear computer curve fit. The Scatchard plot was calculated by linear regression of the line obtained by plotting the amount of radioligand bound (pmoles/gram of tissue) [formula] Since the amount of radioligand bound was a small fraction of the total amount added, free radioligand was defined as the concentration (nM) of radioligand added to the incubation mixture. The Hill coefficient was calculated by linear regression of the line obtained by plotting the log of the bound radioligand vs the log of the [formula] The maximal number of binding sites (Bmax) was calculated from the Scatchard plot.

adenosine A2 receptor = target: T2, adenosine A2 receptor (Rattus norvegicus, UniProt P30543); experiment: Adenosine Receptor Binding--A2 Receptor Affinity (RBA2), [3H]NECA binding, rat striatal membranes; design: species or system rat (mixed sex Sprague-Dawley; male Long-Evans); conditions: 4 nM [3H]NECA, 50 nM N6-cyclopentyladenosine, 25° C., 60 min
T2 construct: 5 mg original tissue weight of rat weight of rat striatal membranes; tissue Pel-Freez (Rogers, Ark.) for the brains; host or cells: rat striatum (Sprague-Dawley; Long-Evans gave essentially identical results), membranes
T2 sequence (P30543 whole entry): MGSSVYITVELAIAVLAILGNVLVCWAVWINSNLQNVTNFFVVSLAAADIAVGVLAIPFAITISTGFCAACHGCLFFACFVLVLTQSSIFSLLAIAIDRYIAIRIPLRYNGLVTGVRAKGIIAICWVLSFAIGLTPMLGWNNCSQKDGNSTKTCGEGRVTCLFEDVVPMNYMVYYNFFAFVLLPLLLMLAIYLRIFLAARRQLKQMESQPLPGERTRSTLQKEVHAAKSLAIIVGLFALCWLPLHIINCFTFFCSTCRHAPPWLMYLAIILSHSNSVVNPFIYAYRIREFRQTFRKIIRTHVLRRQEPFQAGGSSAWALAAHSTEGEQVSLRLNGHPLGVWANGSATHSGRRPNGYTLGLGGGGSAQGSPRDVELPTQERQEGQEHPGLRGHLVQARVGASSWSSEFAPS
Protocol: Adenosine Receptor Binding--A2 Receptor Affinity (RBA2)
Brains from 200-500 g mixed sex Sprague-Dawley rats were purchased from Pel-Freez (Rogers, Ark.). […] Brains were thawed and then kept on ice while the striata were dissected out. Striata were disrupted in 10 vol of ice-cold 50 mM Tris.HCl (pH 7.7 at 25° C., pH 8.26 at 5° C.) (Tris) for 30 seconds in a Polytron PT-10 (Brinkmann) at setting 5. The suspension was centrifuged at 50,000 xg for ten minutes, the supernatant discarded, the pellet resuspended in 10 vol ice-cold Tris as above, recentrifuged, resuspended at 1 g/5 ml, and stored in plastic vials at -70° C. […] When needed, tissue was thawed at room temperature, disrupted in a Polytron, and kept on ice until used.
Test compounds were dissolved at 10 mM in dimethylsulfoxide on the same day as the experiment, and diluted in dimethylsulfoxide to 100× the final incubation concentration. […] [^3 H]NECA was diluted to 40 nM in Tris. […] After all additions, the rack of tubes was vortexed, and the tubes were then incubated for 60 min at 25° C. in a shaking water bath. The rack of tubes was vortexed an additional time halfway through the incubation.
Incubations were terminated by filtration through 2.4 cm GF/B filters under reduced pressure. Each tube was filtered as follows: the contents of the tube were poured onto the filter, 4 ml of ice-cold Tris were added to the tube and the contents poured onto the filter, and the filter was washed twice with 4 ml of ice-cold Tris. The filtration was complete in about twelve seconds. Filters were put in scintillation vials, 8 ml of Formula 947 scintillation fluid added, and the vials left overnight, shaken, and counted in a liquid scintillation counter at 40% efficiency.
The IC50 was calculated by weighted nonlinear least squares curve-fitting to the mass-action equation. [formula] where Y is cpm bound
T is cpm total binding without drug
S is cpm specific binding without drug
D is the concentration of drug
K is the IC50 of the drug
Weighting factors were calculated under the assumption that the standard deviation was proportional to the predicted value of Y. Nonspecific binding was treated as a very large (infinite) concentration of drug in the computer analysis.

[1] = Mouse Activity and Screen Test (MAST), screen test failure (ST); assay type: in vivo, mouse (Swiss-Webster, male); conditions: for Inhibition of screen test failure: percent of mice falling off the screen
Protocol: Treatments are administered intraperitoneally one hour prior to testing. […] Compounds are dissolved or suspended in 0.2% Methocel. Control animals are injected with Methocel.
The compounds are identified in the Examples.

pIC50 (adenosine A1 receptor): 6.86
pIC50 (adenosine A2 receptor): 6.41
SMILES: OC[C@H]1O[C@@H](n2cnc3c(NCCC(c4ccccc4)c4ccccc4)ncnc32)[C@H](O)[C@@H]1O [Example 2, N^6-(3,3-Diphenylpropyl)adenosine]
Inhibition of screen test failure ([1]; 10 mg/kg intraperitoneal): 0%
Inhibition of screen test failure ([1]; 30 mg/kg intraperitoneal): 0%
Inhibition of screen test failure ([1]; 100 mg/kg intraperitoneal): 0%
minimal effective dose ([1]; Mus musculus, ip, lowest dose at which an A rating is achieved, screen test, intraperitoneal, 1 h prior to testing, read-out: MAST ST LAD): > 100 mg/kg
